Reference: ChEMBL document CHEMBL1156829 (Proc Natl Acad Sci U S A, 2008)

Assays:
[1] = NOVARTIS: Cytotoxicity against human hepatocellular carcinoma cell line (Huh7); assay type: toxicity, cell-based, Huh-7; settings: Huh7 cells (hepatocellular carcinoma cell line)
Plasmodium falciparum [2] = experiment: NOVARTIS: Inhibition of Plasmodium falciparum 3D7 (drug-susceptible) proliferation in erythrocyte-based infection assay; assay type: functional, organism-based; settings: Plasmodium falciparum, 3D7
Plasmodium falciparum [3] = experiment: NOVARTIS: Inhibition of Plasmodium falciparum W2 (drug-resistant) proliferation in erythrocyte-based infection assay; assay type: functional, organism-based; settings: Plasmodium falciparum, W2; read-out: EC50

| Structure (SMILES) | CC50 [1] [nM] | EC50 (Plasmodium falciparum [2]) [nM] | EC50 (Plasmodium falciparum [3]) [nM] |
| --- | --- | --- | --- |
| CCN(CC)S(=O)(=O)c1ccc(-c2csc(=Nc3cccc4ccccc34)n2C)cc1 | > 10000 | 60.9 | > 1220 |
| CCOC(=O)C(C)Oc1cccc2c(=O)n(CC(=O)Nc3ccc(OC(F)(F)F)cc3)ccc12 (stereo not given) | > 10000 | > 1250 | > 1220 |
| CC1=NOC(=O)/C1=C\c1cccs1 | > 10000 | > 1250 | > 1240 |
| CCOc1ccc(S(=O)(=O)Oc2cccc3cccnc23)cc1 | > 10000 | > 1690 | > 1190 |
| CC(C)CNc1nc(NCCCN2CCCC2)ncc1C(=O)NCc1ccccc1 | > 10000 | 664 | > 1230 |
| CC(C)CC(=O)OC1C(N2CCCCC2)c2c(ccc(C=CC(=O)N3CCCCC3)c2O)OC1(C)C (stereo not given) | > 100000 | 2600 | > 12300 |
| O=C(C1CC1)n1cc(C(=O)C(F)(F)F)c2ccccc21 | > 10000 | 1370 | > 1220 |
| COC(=O)C1=C(C)N(c2ccc(N(C)C)cc2)C(C)=C(C(=O)OC)C1c1ccc(Br)cc1 | > 10000 | > 1250 | > 1220 |
| CC(=O)N1CCOC1C(C)(C)C/C=C(\C)CCC=C(C)C (stereo not given) | > 14100 | 806 | > 1690 |
| Cc1ccc(C)c(N2C(=O)CC(Cc3ccc(Cl)cc3)C2=O)c1 (stereo not given) | > 10000 | > 1250 | 1230 |
| CCOC(=O)c1cnc2c(OC)cccc2c1Nc1cc(C)c(Cl)cc1OC | > 10000 | 539 | > 1230 |
| c1cncc(-c2cc(NCCCN3CCOCC3)nc(-c3ccncc3)n2)c1 | > 10000 | 1080 | 1210 |
| CC(CCCC(C)(C)O)Nc1cncc(-c2ccc(C(N)=O)cc2)n1 (stereo not given) | > 10000 | > 1250 | > 1200 |
| CCCCCN(C(=O)c1ccc2ccccc2c1)C(CC)c1nc2ccccc2c(=O)n1-c1ccccc1OC (stereo not given) | > 10000 | 752 | > 1230 |
| COc1cc(/C=C(\C#N)c2nc3ccccc3[nH]2)ccc1OCc1ccccc1 | > 10000 | 728 | 1210 |
| O=C(Nc1ccc(-c2nc3cc(-c4nc5ccccc5o4)ccc3[nH]2)cc1)c1ccc([N+](=O)[O-])cc1 | > 10000 | 1050 | 1200 |
| COc1cc(OC)cc(-n2nc(C(=O)NC3CCCCC3)c3ccccc3c2=O)c1 | > 10000 | > 1250 | > 1220 |
| CCCn1c(-c2cccc(Br)c2)nc2ccccc21 | > 10000 | > 1140 | > 1220 |
| CCN(CC)c1ccc(C2N(Cc3ccccc3)CCN2Cc2ccccc2)c(O)c1 | 23600 | 2360 | 2820 |
| CCOc1cc([N+](=O)[O-])cc(C=Nc2cccc(NC(=O)c3ccco3)c2)c1O | > 10000 | > 1250 | > 1240 |
| O=C(NC1CCN(Cc2ccccc2)CC1)c1cc([N+](=O)[O-])cc([N+](=O)[O-])c1 | > 10000 | 476 | 1220 |
| O=C(Cn1c(-c2ccccc2)c[n+]2ccsc12)c1ccccc1 | > 10000 | 517 | 1220 |
| COC(F)(C(=O)Nc1c(C)n(C)n(-c2ccccc2)c1=O)C(F)(F)F (stereo not given) | > 9060 | 1550 | > 1100 |
| COc1cc(NC(C)CCCN(Cc2ccccc2OC)C(=O)c2ccc(C)c([N+](=O)[O-])c2)c2ncccc2c1 (stereo not given) | 4640 | 873 | 555 |
| COc1cc(NC(=O)C(F)(F)F)c(C(=O)c2ccc(C(F)(F)F)cc2)cc1OC | > 10000 | 1140 | > 1200 |

| Structure (SMILES) | CC50 [1] [nM] | EC50 (Plasmodium falciparum [2]) [nM] | EC50 (Plasmodium falciparum [3]) [nM] |
| --- | --- | --- | --- |
| CCn1c(-c2ccc(O)cc2)nn(CN2CCN(Cc3ccc4c(c3)OCO4)CC2)c1=S | > 10000 | > 1250 | > 1200 |
| CCOc1ccccc1NC(=O)CN1CCN(C(=O)c2ccco2)CC1 | > 100000 | 5460 | 12000 |
| O=C(Nc1cccc(Oc2ccccc2)c1)NC(CN1CCCC1)c1ccccc1 (stereo not given) | 11800 | 704 | 1430 |
| O=C(C1CCC(Cn2c(=S)[nH]c3ccccc3c2=O)CC1)N1CC=C(c2ccccc2)CC1 (stereo not given) | > 10000 | > 964 | 1200 |
| Cn1c(=O)c2c(ncn2CC(O)CN2CCCC2)n(C)c1=O (stereo not given) | > 10000 | > 1250 | > 1190 |
| CCN(CC)c1ccc(/C=C/C23NC(=O)CCN2c2ccc(C)cc2C3(C)C)cc1 (stereo not given) | > 10100 | 1620 | 1210 |
| N=C(NN=Cc1cccc([N+](=O)[O-])c1)SC1CC(=O)N(c2cc(Cl)ccc2Cl)C1=O (stereo not given) | > 10000 | > 1250 | > 1190 |
| CC1CCCCN1CCCNc1ncc(C(=O)NCCc2ccccc2)c(NCC2CCCCC2)n1 (stereo not given) | > 10000 | 602 | 1200 |
| CCCN[P+](CC(C)C)(NCCC)NCCC | 3340 | 211 | 398 |
| CC(C)Cc1ccc(/C=C/C(=O)NC2CC2)cc1 | > 10000 | 913 | > 1200 |
| CCC(c1nc2cc(Cl)ccc2c(=O)n1CC)N(CC)C(=O)c1ccc2ccccc2c1 (stereo not given) | > 10000 | > 1220 | 1230 |
| O=C1C(Nc2ccc(O)cc2)=CC(=NS(=O)(=O)c2cccs2)c2ccccc21 | 2430 | 590 | 297 |
| Cn1c(=O)c2c(nc(N3CCN(C(=O)Nc4ccc(F)cc4F)CC3)n2C)n(C)c1=O | > 10000 | > 1250 | 1200 |
| CC[n+]1c(/C=C/C=C2\N(C)c3ccccc3C2(C)C)n(-c2ccccc2)c2ccc(Cl)cc21 | > 10000 | > 1500 | > 1220 |
| CCCCCCOc1ccc(NC(=O)c2ccco2)cc1 | > 10000 | 1390 | 1200 |
| CN1C2CCC1/C(=C\c1ccsc1)C(=O)/C2=C\c1ccsc1 | > 10000 | > 1300 | > 1190 |
| Cc1cc(C)cc(OCC(=O)N2N=C(C(C)C)CC2(O)C(F)(F)F)c1 (stereo not given) | > 10000 | 1750 | > 1220 |
| COc1cc(/C=C2\SC(c3ccc(C)cc3)=NC2=O)cc(OC)c1OC | > 10000 | > 1250 | > 1220 |
| Clc1ccc(C2Nc3ccc4ccccc4c3C3C=CCC32)c(Cl)c1 (stereo not given) | > 10000 | > 1250 | > 1200 |
| CCN(CC)CCCC(C)Nc1c2ccc(Cl)cc2nc2ccc(OC)nc12 (stereo not given) | > 6250 | 744 | 746 |
| CCOc1ccc2[nH]c(=O)c(CN(Cc3ccccc3OC)C(C)=O)cc2c1 | > 10000 | > 1740 | > 1210 |
| COc1cccc(NC(=O)N(Cc2ccccc2)C(C)c2nc3ccccc3c(=O)n2-c2cc(C)ccc2OC)c1 (stereo not given) | > 10000 | 1240 | 1220 |
| COc1cccc(CNc2cc(C(=O)NCCNC(C)=O)cc(S(=O)(=O)N(C)C)c2)c1OC | > 10000 | > 431 | > 1210 |
| Cc1ccc(-c2nnc(N3CCOCC3)c3ccccc23)cc1S(=O)(=O)N1CCN(C)CC1 | > 10000 | > 1250 | > 1220 |
| COc1ccc(C2(Cc3ccccc3)NC(=O)NC2=O)cc1 (stereo not given) | > 10000 | 1340 | > 1220 |
